Key:
Test in all cases: in vitro transcription antitermination dose-response (E. coli RNAP)
[1] = test system: Cba ppGpp riboswitch with C3-SC1 leader (PRA1_Cap3_SC1_Cba2-2_dRP1) (RNA, riboswitch) AUUCGGUGCUCUUCUCUUCGGCCUUCGGGCCAAAAUAAGAGAGUGUAUCUAGGGUUCCGGUCAAUAGAUGUCUGGUCCGAGCGAUACAGGAUUUCAAUCUACACUUUUAGGAAAAAAGCCUAAAGGACGAGUCUCUGCAAAGAGAUUUGUUCUUGGGCUUUAUUUUUUUAUCUUUAUUUAAGAUCGUCGGACUGUAGAACUCUGAACGUGUAGAUCUCGGUGGUCGCCGUAUCAUU; details: 50 mM KCl, 10 mM MgCl2; 20 mM Tris-HCl pH 8.0, 37 °C, 500 μM NTPs, NusA; readthrough fold-change 6.0
[2] = test system: Cba ppGpp riboswitch (native, leader-less; PRA1_Cba2-2_dRP1) (RNA, riboswitch) AUAAUAAGAGAGUGUAUCUAGGGUUCCGGUCAAUAGAUGUCUGGUCCGAGCGAUACAGGAUUUCAAUCUACACUUUUAGGAAAAAAGCCUAAAGGACGAGUCUCUGCAAAGAGAUUUGUUCUUGGGCUUUAUUUUUUUAUCUUUAUUUAAGAUCGUCGGACUGUAGAACUCUGAACGUGUAGAUCUCGGUGGUCGCCGUAUCAUU; details: 50 mM KCl, 10 mM MgCl2; 20 mM Tris-HCl pH 8.0, 37 °C, 500 μM NTPs, NusA only stated for leader assay; readthrough fold-change 1.9
[3] = test system: pfl ZTP riboswitch with C3-SC1 leader (PRA1_Cap3_SC1_CbePfl_dRP1) (RNA, riboswitch) AUUCGGUGCUCUUCUCUUCGGCCUUCGGGCCAAAUUAGAUAUUAGUCAUAUGACUGACGGAAGUGGAGUUACCACAUGAAGUAUGACUAGGCAUAUUAUCUUAUAUGCCACAAAAAGCCGACCGUCUGGGCAAAAAAAGCCUGGAUUGCGUCGGCUUUUUUAUAUGGAAAAGAUCGUCGGACUGUAGAACUCUGAACGUGUAGAUCUCGGUGGUCGCCGUAUCAUU; details: 50 mM KCl, 10 mM MgCl2; 20 mM Tris-HCl pH 8.0, 37 °C, 500 μM NTPs; up to 1 mM ZMP; readthrough fold-change 7.1
[4] = test system: pfl ZTP riboswitch (native, leader-less; PRA1_CbePfl_dRP1) (RNA, riboswitch) AUAUUAGAUAUUAGUCAUAUGACUGACGGAAGUGGAGUUACCACAUGAAGUAUGACUAGGCAUAUUAUCUUAUAUGCCACAAAAAGCCGACCGUCUGGGCAAAAAAAGCCUGGAUUGCGUCGGCUUUUUUAUAUGGAAAAGAUCGUCGGACUGUAGAACUCUGAACGUGUAGAUCUCGGUGGUCGCCGUAUCAUU; details: 50 mM KCl, 10 mM MgCl2; 20 mM Tris-HCl pH 8.0, 37 °C, 500 μM NTPs; up to 1 mM ZMP; readthrough fold-change 3.6

Row | Compound | binding [1] | binding [2] | binding [3] | binding [4]
1 | Nc1nc2c(ncn2[C@@H]2O[C@H](COP(=O)(O)OP(=O)(O)O)[C@@H](OP(=O)(O)OP(=O)(O)O)[C@H]2O)c(=O)[nH]1 | yes | yes |  | 
2 | NC(=O)c1ncn([C@@H]2O[C@H](COP(=O)(O)O)[C@@H](O)[C@H]2O)c1N |  |  | yes | yes
